From patent publication US7074761B1, “Peptides and production and use thereof” (Takeda Chemical Ind., Ltd., priority 1996, dated 2006) come the findings set out here.

For one test, the target named is T1, human SSTR3 (Homo sapiens, UniProt P32745).
T1 construct: expressed in transfected cells; host or cells: CHO(dhfr-) cells, clone SSTR3-15-19, plasmid pA-1-11-SSTR3 (vector pAKKO-111)
As to the kind of experiment: cAMP accumulation inhibiting activity in SSTR3 expressing CHO cells (forskolin stimulated). Type of test: cell-based. The following applies: forskolin 10 μM, CHO cells SSTR3-15-19; read-out: ED50, inhibition of intracellular cAMP accumulation, SSTR3. How it is done: (§1) For measuring the intracellular accumulations of cyclic adenosine 3′,5′-monophosphate (cAMP), the human somatostatin receptor expressing cell lines SSTR2-HS5-9, SSTR3-15-19, SSTR4-1-2 and SSTR5-32-4 respectively described in Reference Example 2 (3), Reference Example 3 (3), Reference Example 4 (3) and Reference Example 5 (3) were multiplied on 24-well plates until confluency. Said cells were washed with two 1-ml portions of medium A [Dulbecco-'s modified Eagle's medium (DMEM), 20 mM 2-[4-(2-hydroxyethyl)-1-piperazinyl]ethanesulfonic acid (HEPES) (pH. 7.5), 0.2% BSA, 0.2 mM 3-isobutyl-1-methylxanthine (IBMX)] and then 400 μl of medium A was added to each well and incubation was carried out at 37° C. for 1 hour. To each well were added 50 μl of a hCS-15 or hCS-17 solution (each diluted to a concentration 10 times the final concentration with medium A) and 50 μl of a forskolin solution (final concentration: 10 μM), and incubation was carried out at 37° C. for 30 minutes. The cells were washed with two 1-ml portions of medium A and then 500 μl of medium A and 100 μL of 20% aqueous perchloric acid solution were added to each well, followed by standing at 4° C. for 20 minutes for cell lysis. […] The amount of cAMP contained in this extract was determined using an Amersham's kit (cAMP EIA system).

Test [1] concerns the target T2, human SSTR4 (Homo sapiens, UniProt P31391).
T2 construct: expressed in transfected cells; host or cells: CHO(dhfr-) cells, clone SSTR4-1-2, plasmid pA-1-11-SSTR4 (vector pAKKO-111)
As to the kind of experiment: [125I]-somatostatin binding inhibition, SSTR4 CHO cell membrane fraction. The following applies: 25° C., 60 minutes. The procedure: CHO(dhfr^−) cells (1×10^6 cells) were cultured on HAM F12 medium containing 10% fetal bovine serum in a dish with a diameter of 8 cm for 24 hours. Into these cells was introduced 10 μg of the human SSTR4 DNA expression plasmid pA-1-11-SSTR4 obtained as described above in (2) by the calcium phosphate method (Cell Phect Transfection Kit; Pharmacia). At 24 hours after transfection, the medium was exchanged for DMEM containing 10% dialyzed fetal bovine serum, and cells forming a colony on this medium (namely DHFR^+ cells) were selected. Further, the cells selected were treated by the limiting dilution method for cloning from a single cell, and the cells thus cloned were measured for their somatostatin receptor protein expression ability by the binding assay described in Reference Example 1 (3). In this manner, a cell line with high somatostatin-binding activity, SSTR4-1-2, was selected.
The human somatostatin receptor expressing CHO cell lines SSTR1-8-3, SSTR2-HS5-9, SSTR3-15-19, SSTR4-1-2 and SSTR5-32-4 (10^9 cells each) were respectively suspended in phosphate buffered physiological saline supplemented with 5 mM EDTA (PBS-EDTA) and centrifuged. To each cell pellet was added 10 ml of cell homogenation buffer (10 mM NaHCO3, 5 mM EDTA, pH=7.5), followed by homogenation with a Polytron homogenizer. The homogenate was centrifuged at 400×g for 15 minutes, and the supernatant obtained was further centrifuged at 100,000×g for 1 hour to give a membrane fraction as a precipitate. […]
(§2) The membrane fractions prepared in Reference Example 6 were each diluted to 3 μg/ml with assay buffer. […] After filtration, the radioactivity of [^125I]-somatostatin remaining on the filter paper was measured. For each test substance, the binding inhibition percentage (%) was calculated according to the formula: PBM=(B−NSB)/(B0−NSB)×100 (where PBM: percent maximum binding; B: radioactivity when the test sample is added; B0: maximum bound radioactivity; NSB: non-specifically bound radioactivity). […]

Test [2] has as its target T2, human SSTR4. As to the kind of experiment: cAMP accumulation inhibiting activity in SSTR4 expressing CHO cells (forskolin stimulated). The format is cell-based. Particulars: forskolin 10 μM, CHO cells SSTR4-1-2; read-out: ED50, inhibition of intracellular cAMP accumulation, SSTR4. How it is done:
as §1
For orientation: Changes in cAMP serve as a functional read-out for many G protein-coupled receptors.

For a further test, the target named is T3, human SSTR5 (Homo sapiens, UniProt P35346).
T3 construct: expressed in transfected cells; host or cells: CHO(dhfr-) cells, clone SSTR5-32-4, plasmid pA-1-11-SSTR5 (vector pAKKO-111)
T3 sequence (P35346 whole entry): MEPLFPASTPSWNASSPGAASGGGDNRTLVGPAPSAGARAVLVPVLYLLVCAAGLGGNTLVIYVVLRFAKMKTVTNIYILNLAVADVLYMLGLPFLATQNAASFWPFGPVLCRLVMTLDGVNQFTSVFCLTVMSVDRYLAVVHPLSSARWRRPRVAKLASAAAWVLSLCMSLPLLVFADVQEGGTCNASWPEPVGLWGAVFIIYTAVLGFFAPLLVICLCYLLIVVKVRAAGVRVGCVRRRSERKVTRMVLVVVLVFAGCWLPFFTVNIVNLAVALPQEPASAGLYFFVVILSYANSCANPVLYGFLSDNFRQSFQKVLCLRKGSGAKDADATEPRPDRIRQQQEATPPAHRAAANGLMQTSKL
As to the kind of experiment: [125I]-somatostatin binding inhibition, SSTR5 CHO cell membrane fraction. The following applies: 25° C., 60 minutes. The procedure: CHO(dhfr^−) cells (1×10^6 cells) were cultured on HAM F12 medium containing 10% fetal bovine serum in a dish with a diameter of 8 cm for 24 hours. Into these cells was introduced 10 μg of the human SSTR5 cDNA expression plasmid pA-1-11-SSTR5 obtained as described above in (2) by the calcium phosphate method (Cell Phect Transfection Kit; Pharmacia). At 24 hours after transfection, the medium was exchanged for DMEM containing 10% dialyzed fetal bovine serum, and cells forming a colony on this medium (namely DHFR^+ cells) were selected. Further, the cells selected were treated by the limiting dilution method for cloning from a single cell, and the cells thus cloned were measured for their somatostatin receptor protein expression ability by the binding assay described in Reference Example 1 (3). In this manner, a cell line with high somatostatin-binding activity. SSTR5-32-4, was selected. […]
as §2

pEC50, pIC50: −log10 of the molar value. Where a SMILES comes first, the peptide text is derived from it. Bridges are numbered along the chain shown (N, C = ends).

T2 sequence (P31391 whole entry): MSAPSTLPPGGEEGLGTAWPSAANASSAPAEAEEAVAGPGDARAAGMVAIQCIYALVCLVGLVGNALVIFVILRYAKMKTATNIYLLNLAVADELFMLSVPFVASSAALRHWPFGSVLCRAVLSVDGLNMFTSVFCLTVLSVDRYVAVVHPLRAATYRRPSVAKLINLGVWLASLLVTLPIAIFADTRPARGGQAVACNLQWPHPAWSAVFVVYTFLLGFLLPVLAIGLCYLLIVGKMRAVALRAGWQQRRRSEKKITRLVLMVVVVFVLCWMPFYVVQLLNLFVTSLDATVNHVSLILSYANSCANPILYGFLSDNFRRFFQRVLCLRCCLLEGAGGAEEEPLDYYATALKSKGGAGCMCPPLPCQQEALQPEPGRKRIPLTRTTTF
T1 sequence (P32745 whole entry): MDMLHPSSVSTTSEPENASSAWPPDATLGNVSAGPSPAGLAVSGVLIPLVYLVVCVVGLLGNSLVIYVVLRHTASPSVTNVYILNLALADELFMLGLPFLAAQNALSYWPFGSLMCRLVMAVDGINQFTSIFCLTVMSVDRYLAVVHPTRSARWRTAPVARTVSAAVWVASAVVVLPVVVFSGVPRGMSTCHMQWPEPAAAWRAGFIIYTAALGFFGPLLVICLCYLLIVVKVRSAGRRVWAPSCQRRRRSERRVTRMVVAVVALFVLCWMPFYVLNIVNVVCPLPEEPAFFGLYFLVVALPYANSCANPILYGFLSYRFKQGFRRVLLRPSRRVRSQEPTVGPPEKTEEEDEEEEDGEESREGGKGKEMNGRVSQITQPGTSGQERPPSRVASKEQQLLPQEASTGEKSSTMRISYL

`CSCC[C@H](NC(=O)[C@H](CCCNC(=N)N)NC(=O)[C@@H](N)CC(=O)O)C(=O)N1CCC[C@H]1C(=O)N[C@H]1CSSC[C@@H](C(=O)N[C@@H](CCCCN)C(=O)O)NC(=O)[C@H](CO)NC(=O)[C@H](CO)NC(=O)[C@H](Cc2ccccc2)NC(=O)[C@H]([C@@H](C)O)NC(=O)[C@H](CCCCN)NC(=O)[C@H](Cc2c[nH]c3ccccc23)NC(=O)[C@H](Cc2ccccc2)NC(=O)[C@H](Cc2ccccc2)NC(=O)[C@H](CC(N)=O)NC(=O)[C@H](CCCNC(=N)N)NC1=O` [hCS-17]: the pEC50 at human SSTR3 is 9.00. For the same compound, the pIC50 on human SSTR4 [1] is 9.30.

With `CSCC[C@H](N)C(=O)N1CCC[C@H]1C(=O)N[C@H]1CSSC[C@@H](C(=O)N[C@@H](CCCCN)C(=O)O)NC(=O)[C@H](CO)NC(=O)[C@H](CO)NC(=O)[C@H](Cc2ccccc2)NC(=O)[C@H]([C@@H](C)O)NC(=O)[C@H](CCCCN)NC(=O)[C@H](Cc2c[nH]c3ccccc23)NC(=O)[C@H](Cc2ccccc2)NC(=O)[C@H](Cc2ccccc2)NC(=O)[C@H](CC(N)=O)NC(=O)[C@H](CCCNC(=N)N)NC1=O` [hCS-15] (H-MPCRNFFWKTFSSCK-OH; disulfide 3-14; N-terminus and C-terminus assumed), the pEC50 at human SSTR3 is 9.00; on human SSTR4 [2] it was 9.70. For the same compound, the pIC50 at human SSTR4 [1] and at human SSTR5 was 9.22 in each case.

By pIC50 is commonly meant the negative decadic logarithm of the IC50, by convention in mol/L. A low value points to a large IC50.
